Data reported in patent publication US4769383A, “Dioxonaphthotriazoles having antiallergic activity” (Beecham Group p.l.c., priority 1981, dated 1988).

Key:
[1] = test system: slow reacting substance of anaphylaxis (SRS-A), isolated guinea pig ileum; test: SRS-A Antagonism on Guinea Pig Ileum; conditions: isolated guinea pig ileum strips; Tyrode's solution with atropine 5×10^-7 M and mepyramine 10^-6 M; rat SRS-A; read-out: Approximate concentration to give a 50% inhibition of a less than maximal response to SRS-A
Experimental: (§1) The compounds were tested for their ability to:
(b) antagonise the spasmogenic effects of slow reacting substance of anaphylaxis, SRS-A, on isolated guinea pig ileum.
(§2) Charles River Sprague Dawley male rats of 250-300 g. and Dunkin Hartley male white guinea pigs of 250-300 g. were used.
The compounds have been evaluated as direct antagonists of slow reacting substance of anaphylaxis (SRS-A) by assay using the isolated guinea pig ileum.
SRS-A rat was obtained from the peritoneal cavity of the rat after passive peritoneal anaphylaxis by a method based on that of R. P. Orange, D. J. Stechschulte and K. F. Austen, J. Immunology, 105, 1087 (1970) as described by J. W. Ross, H. Smith and B. A. Spicer 1976, Increased vascular permeability during passive peritoneal anaphylaxis in the rat. Int. Arch. Allergy appl. 51, 226. The sensitising serum containing antibody was produced in rats as described by J. W. Ross et. al., ibid.
2 ml of a 1 in 5 dilution of the sensitising serum was injected by the peritoneal route into recipient rats and after 2 hours 5 ml of Tyrode's solution containing 0.4 mg/ml ovalbumin (Sigma Grade III) and 50 μg/ml heparin was injected by the same route. Five minutes after challenge the rats were stunned and bled and the peritoneal fluids collected into polycarbonate tubes in ice. After centrifugation at 150 g. for five minutes the supernatants were combined, heated in a boiling water bath for five minutes, cooled and stored at -20° C. The combined peritoneal fluids contained SRS-A and were used in the antagonism studies.
The SRS-A arrays were carried out on isolated strips of guinea pig ileum in Tyrode's solution containing atropine 5×10^-7 M and mepyramine 10^-6 M as described by W. E. Brocklehurst, J. Physiology, 151, 416 (1960).
The activity of the antagonists was determined by their ability to reduce submaximal responses induced by SRS-A. The antagonists were added to the 4 ml bath in 0.1 ml volumes in aqueous solution half a minute before the addition of SRS-A and were present during induced contraction.

[2] = test system: rat passive peritoneal anaphylaxis; test: Rat Passive Peritoneal Anaphylaxis (PPA); type: in vivo; conditions: Mean ± SEM, 5-7 rats per group; for Dye concentration in peritoneal fluid as % of mean of controls: Pontamine Sky Blue
Experimental: as §1
(a) inhibit rat passive peritoneal anaphylaxis; and
as §2
The method has been described previously. (Ross, Janet W., Smith, H. and Spicer, Barbara A. Increased vascular permeability during passive peritoneal anaphylaxis in the rat. Int. Arch. Allergy appl. Immun., 51, 226, 1976).
Rats were sensitised by giving an intraperitoneal injection of 0.5 ml of Bordetella pertussis vaccine (4×10^10 organisms/ml Burroughs Wellcome, London) and a subcutaneous injection of 0.5 ml of an emulsion of 100 mg of ovalbumin (chicken egg albumin, crystallised and lyophilised, grade 3, Sigma, London) in 2 ml of isotonic saline and 3 ml of Freud's incomplete adjuvant (Difco Laboratories, Michigan, USA).
The rats were bled by cardiac puncture, on day 18, the blood was pooled, and the serum separated, stored at -20° C. and thawed only before use.
Rats were each given an intraperitoneal injection of 2 ml of a 1:5 dilution of the rat anti-serum in isotonic saline. Two hours later 0.3 ml of a 5% solution of Pontamine Sky Blue (Raymond A. Lamb, London) in isotonic saline was injected intravenously, followed by an intraperitoneal injection of the test compound in 1 ml of saline; (control rats received 1 ml of saline); followed 30 seconds later by an intraperitoneal injection of 5 ml of Tyrode's solution containing 50 μg/ml heparin and 0.4 mg/ml of ovalbumin. The concentrations of the compounds were quoted as those in the 6 ml of fluid injected intraperitoneally. Exactly five minutes after challenge the rats were stunned and bled and their peritoneal fluids were collected by opening their peritoneal cavities over funnels into polycarbonate tubes in ice. The supernatants were separated from the cellular residue by centrifuging at 150 g. for five minutes and were retained for assay of dye and histamine. Any samples obviously contaminated with blood were not used for estimation of dye. Groups of at least five rats were used for each dose of compound and the treatments were randomised.
Dye was assayed within two hours by measurement of optical density (OD) at 625 nm.
For histamine assay 0.5 ml samples of the supernatants were added to 1 ml volumes of 12% trichloracetic acid and stored at -20° C. The deproteinised samples were assayed using an automated spectrofluorimetric system (Technicon Autoanalyser) by a method similar to that of Evans, D. P., Lewis, J. A. and Thomson, D. S.: (An automated fluorimetric assay for the rapid determination of histamine in biological fluids. Life Sci. 12, 327, 1973).

| Compound | IC50 [1] [nM] | Histamine concentration in peritoneal fluid as % of mean of controls ([2]; 2 × 10^-5 M injected i.p.) | Dye concentration in peritoneal fluid as % of mean of controls ([2]; 2 × 10^-5 M injected i.p.) | Histamine concentration in peritoneal fluid as % of mean of controls ([2]; 2 × 10^-6 M injected i.p.) | Dye concentration in peritoneal fluid as % of mean of controls ([2]; 2 × 10^-6 M injected i.p.) | Histamine concentration in peritoneal fluid as % of mean of controls ([2]; 2 × 10^-7 M injected i.p.) | Dye concentration in peritoneal fluid as % of mean of controls ([2]; 2 × 10^-7 M injected i.p.) | Histamine concentration in peritoneal fluid as % of mean of controls ([2]; 2 × 10^-8 M injected i.p.) | Dye concentration in peritoneal fluid as % of mean of controls ([2]; 2 × 10^-8 M injected i.p.) |
| --- | --- | --- | --- | --- | --- | --- | --- | --- | --- |
| CCCc1c(OCCCOc2ccc3c(c2)C(=O)c2nn[nH]c2C3=O)ccc(C(C)=O)c1O [Example 1, 6-[3-(4-Acetyl-3-hydroxy-2-n-propylphenoxy)propoxy]4,9-dihydro-4,9-dioxo-1H-naphtho[2,3-d]-v-triazole] | ~400 | 10 ± 1 % of mean of controls | 32 ± 5 % of mean of controls | 27 ± 8 % of mean of controls | 58 ± 8 % of mean of controls | 57 ± 11 % of mean of controls | 63 ± 5 % of mean of controls | – | – |
| CCCc1c(OCCCOc2cccc3c2C(=O)c2nn[nH]c2C3=O)ccc(C(C)=O)c1O [Example 3, 5-[3-(4-Acetyl-3-hydroxy-2-n-propylphenoxy)-propoxy]4,9-dihydro-4,9-dioxo-1H-naphtho[2,3-d]-v-triazole] | 1000 to 10000 | 25 ± 3 % of mean of controls | 57 ± 4 % of mean of controls | 62 ± 11 % of mean of controls | 94 ± 8 % of mean of controls | – | – | – | – |
| CCCc1c(OCC(O)COc2ccc3c(c2)C(=O)c2nn[nH]c2C3=O)ccc(C(C)=O)c1O (centres unmarked) [Example 4, 6-[3-(4-Acetyl-3-hydroxy-2-n-propylphenoxy)2-hydroxypropoxy]-4,9-dihydro-4,9-dioxo-1H-naphtho[2,3-d]-v-triazole] | 100 to 250 | – | – | – | – | 38 ± 4 % of mean of controls | 58 ± 4 % of mean of controls | 64 ± 11 % of mean of controls | 72 ± 11 % of mean of controls |
